# Literature values, collected in patent publication US20020132751A1, “Detergent compositions” (Unilever Home & Personal Care USA, Division of Conopco, Inc., priority 2000, published 2002).
# Conditions: grams of solid to form a saturated solution in 100 grams of water at 20° C.
row,SMILES,Water Solubility (g/100 g)
1,O=BO[O-].[Na+] [Sodium perborate anhydrous],3.7
2,O=P(O)(O)OP(=O)(O)OP(=O)(O)O [Sodium tripolyphosphate anhydrous],15
